{"source": "patent US9374973B2", "about": "“Grass endophytes” (GRASSLANZ TECHNOLOGY LTD, priority 2003, dated 2016)", "origin": "cited, not measured here", "key": {"[1]": {"system": "black beetle (Heteronychus arator)", "details": "in vivo"}, "[2]": {"system": "grazing sheep, cattle, deer and horses"}, "[3]": {"system": "Argentine stem weevil (Listronotus bonariensis)", "details": "in vivo"}}}
{"compound": "CC(C)[C@H]1C(=O)N2CCC[C@H]2[C@]2(O)O[C@@](C)(NC(=O)[C@@H]3C=C4c5cccc6[nH]cc(c56)C[C@H]4N(C)C3)C(=O)N12", "note": "[Ergovaline]", "values": [{"measurement": "Effect on black beetle", "setting": "[1]", "value": "deterrent"}, {"measurement": "Concentration in ryegrass pastures likely to elicit hyperthermia and depressed prolactin responses", "setting": "[2]; bovine, in vivo", "value": "above 0.5 ppm"}]}
{"compound": "CC(C)=C[C@H]1O[C@H]2[C@H]3O[C@@]34[C@H](CC[C@@]3(C)[C@@]4(O)CC[C@H]4Cc5c([nH]c6ccc7c(c56)C[C@@H]5[C@@H](C7=O)C(C)(C)OC5(C)C)[C@@]43C)O[C@@H]2C(C)(C)O1", "note": "[Lolitrem B]", "values": [{"measurement": "Herbage concentration that may result in clinical symptoms of ryegrass staggers", "setting": "[2]; grazing sheep, cattle, deer and horses", "value": "> 2 ppm of herbage dry matter"}]}
{"compound": "Cn1c(CCCN=C(N)N)cn2cccc2c1=O", "note": "[Peramine]", "values": [{"measurement": "Effect on Argentine stem weevil", "setting": "[3]", "value": "feeding deterrent"}]}
{"compound": "lolitrem", "values": [{"measurement": "Effect on Argentine stem weevil", "setting": "[3]", "value": "toxic"}]}
